The text below walks through data of patent US11306076B2, “Silibinin lipoic acid ester with hepatoprotective activity and a method of preparing the same” (XI'AN TAIKOMED PHARMACEUTICAL TECHNOLOGY CO., LTD., priority 2020, dated 2022).

For experiment [1], the system named is Mice with Alcoholic Liver Injury. Kind of experiment: Protective effect on alcoholic liver injury in mice (serum ALT, AST, TG). In kind it is in vivo. Conditions: 25 days, ethanol 3 g/kg/day. The procedure: The compound of formula (I) was prepared by the method of example 7. In order to study its protective effect on alcoholic liver injury in mice, the following animal model was designed.
Three-week-old 30-35 g SPF male mice were randomly divided into normal control group, model group, low-dose group, high-dose group and tiopronin positive control group after adaptive feeding for 3 days. The normal control group and model group were fed with basic feed every day; low dose group and high dose group were fed with basic diet every day and were given the compound of formula (I) of 10 mg/kg/day and 50 mg/kg/day, respectively; tiopronin positive control group was fed with basic feed and 50 mg/kg/day tiopronin. Ethanol 3 g/kg/day (0.01 mL/g) was given to the model group, low dose group, high dose group and tiopronin positive control group. The normal control group was given distilled water of the same volume. After 25 days, fasting for 2 hours after the last administration, glutamic pyruvic transaminase (ALT), glutamic oxaloacetic transaminase (AST) and triglyceride (TG) were measured in serum by decapitation.

Experiment [2] in a line: DPPH radical scavenging activity assay. In kind it is biochemical. Particulars: for DPPH Clearance rate: n = 3. The text has this:
2,2-Diphenyl-1-picryl hydrazyl (DPPH) is an organic compound composed of a stable organic radical. In the DPPH molecule, due to the presence of multiple electron-withdrawing —NO2 and large π bonds of the benzene ring, nitrogen free radical is stabilized. Its methanol solution is purple and has a maximum absorption peak at 517 nm. After the addition of an antioxidant, DPPH captures an electron to be paired with the free electron, and the purple fades and turns into a yellow substance. The absorption at 517 nm disappears, and the degree of fading is quantitatively related to the number of electrons it captures. Based on this principle, a spectrophotometer is used to detect the change of the absorbance of the DPPH radical and the sample solution, and the ability of the sample to provide hydrogen atoms and scavenge free radicals can be measured.
Preparation of DPPH solution: measuring exact amount of 2,2-diphenyl-1-picryl hydrazyl (DPPH) and dissolving in toluene to prepare a 0.2 mmol/L DPPH solution, stored at 0° C. in dark.
Preparation of test solution: Vc (vitamin C, positive control), compound of formula (I) (sample), silibinin (control) and lipoic acid (control). The sample solution was subjected to gradient dilution with toluene, and three sets of controls were separately dissolved in a test tube with a certain amount of toluene to prepare the same concentration gradient as the sample.
Sample liquid absorbance measurement: Take 2 mL of sample solution (Table 2 Vc, B, C), add 2 mL of DPPH solution with concentration of 2×10^−4 mol/L, mix and react in the dark at room temperature for 30 min, adjust to zero with toluene, and measure at 517 nm. The absorbance Ai was simultaneously measured for the absorbance Aj of 2 mL of toluene mixed with 2 mL of the sample solution and the absorbance Ao of 2 mL of DPPH solution mixed with 2 mL of toluene (the experimental results are shown in Table 3).
clearance rate (%)=[1−(Ai−Aj)/Ao]*100% Clearance calculation: […]

Structures are written as SMILES.

In the case of `CC(S)C(=O)NCC(=O)O` (centres unmarked) [Tiopronin, tiopronin, reference compound], in experiment [1] (50 mg/kg/day), the ALT is 65.32 ± 8.79 U/L, the AST is on record as 141.37 ± 18.75 U/L and the TG was 1.156 ± 0.33 mmol/L.
As to `O=C(O)CCCCC1CCSS1` (centres unmarked) [C, Lipoic acid], the “DPPH Clearance rate” value is 7.27% in experiment [2] (1.76 ppm); 8.52% in experiment [2] (8.80 ppm); 16.42% in experiment [2] (21.12 ppm); 23.54% in experiment [2] (42.24 ppm); 36.45% in experiment [2] (79.20 ppm); 41.58% in experiment [2] (112.64 ppm). Also, the “DPPH Clearance rate” value in experiment [2] (281.60 ppm) is on record as 54.23%; in experiment [2] (492.80 ppm) it was 67.82%; in experiment [2] (792.00 ppm), 72.01%; in experiment [2] (915.20 ppm), 73.69%.
As to `COc1cc(C2Oc3cc([C@H]4Oc5cc(O)cc(O)c5C(=O)[C@@H]4O)ccc3OC2COC(=O)CCCCC2CCSS2)ccc1O` (stereo partly drawn) [Compound of Formula (I), (3-(4-hydroxy-3-methoxyphenyl)-6-((2R,3R)-3,5,7-trihydroxy-4-oxochroman-2-yl)-2,3-dihydrobenzo[b][1,4]dioxin-2-yl)methyl 5-(1,2-dithiolan-3-yl)pentanoate], the ALT in experiment [1] (10 mg/kg/day) is listed as 61.72 ± 10.37 U/L; in experiment [1] (50 mg/kg/day), 57.21 ± 2.93 U/L. Besides, the AST in experiment [1] (10 mg/kg/day) stood at 139.84 ± 18.95 U/L; in experiment [1] (50 mg/kg/day), 134.56 ± 6.57 U/L. The TG in experiment [1] (10 mg/kg/day) is given as 0.902 ± 0.19 mmol/L; in experiment [1] (50 mg/kg/day), 0.873 ± 0.35 mmol/L. Also, the “DPPH Clearance rate” value in experiment [2] (1.76 ppm) is 12.28%; in experiment [2] (8.80 ppm), 19.80%; in experiment [2] (21.12 ppm) it was 32.16%; in experiment [2] (42.24 ppm) it was 43.55%; in experiment [2] (79.20 ppm) it was 69.42%; in experiment [2] (112.64 ppm), 78.95%. Also, the “DPPH Clearance rate” value stood at 81.21% in experiment [2] (281.60 ppm), 86.70% in experiment [2] (492.80 ppm), 90.06% in experiment [2] (792.00 ppm) and 93.52% in experiment [2] (915.20 ppm). In experiment [2] (DPPH free radicals, at the same concentration), the “scavenging ability compared with silibinin (B) and lipoic acid (C) alone” value is listed as “better”. Also, in experiment [2] (DPPH radical), the “scavenging ability compared with the positive control Vc group” value is “slightly weaker”. Besides, the “highest scavenging rate of DPPH radical” value in experiment [2] (in the determined concentration range) turned out to be 93.52%.
